Laboratory results reported in patent publication US20250114431A1, “COMPOUND, COMPOSITION AND METHODS FOR LOWERING CIRCULATING GLUCOSE” (THE HONG KONG POLYTECHNIC UNIVERSITY, priority 2023, published 2025).

Tested on: MIN6 pancreatic beta cells
Experiment: Glucose stimulated insulin secretion assay in MIN6 cells (mouse insulin ELISA)
Format: cell-based
Settings: 100 nM, positive control; FIG. 5A
Experimental: To verify that the glucose homeostasis is regulated through liver or hepatocytes by overexpression of Plac9 in an insulin-independent manner, an in vitro insulin secretion assay was performed on confluent pancreatic beta cells, MIN6, in each well treated by […] of Exendin-4 or different concentrations of recombinant Plac9 of mouse origin at 10, 100 and 1000 nM (n=8) and measured the insulin content of each well by a mouse insulin ELISA kit. […] A glucose uptake assay was performed on primary hepatocytes and hepatic cell line, HepG2, treated with different concentrations (from 0.125 or 0.25 to 1.0 μM) in the presence or absence of exogenous 10 nM insulin, and the results are shown in FIGS. 5B and 5C, respectively.

Question: Exendin-4 [reference compound] was tested. Which insulin secretion did it give?
Answer: The insulin secretion was “significantly induces insulin secretion”.
